ChEMBL document CHEMBL1811816, “Asperaculin A, a sesquiterpenoid from a marine-derived fungus, Aspergillus aculeatus” (J Nat Prod, 2011)
Calls of active or inactive are those of the source.

Columns and labels:
Type in all cases: functional, cell-based
MOLT-3 = assay: Cytotoxicity against human MOLT3 cells at 50 ug/mL after 72 hrs by XTT assay
A549 = assay: Cytotoxicity against human A549 cells at 50 ug/mL after 72 hrs by MTT assay
HepG2 = assay: Cytotoxicity against human HepG2 cells at 50 ug/mL after 72 hrs by MTT assay
HuCC-A1 = assay: Cytotoxicity against human HuCCa1 cells at 50 ug/mL after 72 hrs by MTT assay

Measured: Activity

CC1(C)C[C@]2(C)COC(=O)[C@H]3OC(=O)[C@]4(O)CC[C@@H]1C324 (some centres undefined)
inactive: MOLT-3 | A549 | HepG2 | HuCC-A1
